The structures appear in SMILES notation.

Experimental findings from ChEMBL document CHEMBL3868598, “Synthesis, structure-activity relationship and molecular docking of 3-oxoaurones and 3-thioaurones as acetylcholinesterase and butyrylcholinesterase inhibitors” (Bioorg Med Chem, 2017) are described below.

The target in one test is Acetylcholinesterase (Homo sapiens, UniProt P22303). Kind of test: Inhibition of acetylcholinesterase (unknown origin) using acetylthiocholine iodide as substrate incubated for 10 mins followed by substrate addition measured after 20 mins by UV-Vis spectrophotometric analysis.
Chain of Acetylcholinesterase (P22303 whole entry): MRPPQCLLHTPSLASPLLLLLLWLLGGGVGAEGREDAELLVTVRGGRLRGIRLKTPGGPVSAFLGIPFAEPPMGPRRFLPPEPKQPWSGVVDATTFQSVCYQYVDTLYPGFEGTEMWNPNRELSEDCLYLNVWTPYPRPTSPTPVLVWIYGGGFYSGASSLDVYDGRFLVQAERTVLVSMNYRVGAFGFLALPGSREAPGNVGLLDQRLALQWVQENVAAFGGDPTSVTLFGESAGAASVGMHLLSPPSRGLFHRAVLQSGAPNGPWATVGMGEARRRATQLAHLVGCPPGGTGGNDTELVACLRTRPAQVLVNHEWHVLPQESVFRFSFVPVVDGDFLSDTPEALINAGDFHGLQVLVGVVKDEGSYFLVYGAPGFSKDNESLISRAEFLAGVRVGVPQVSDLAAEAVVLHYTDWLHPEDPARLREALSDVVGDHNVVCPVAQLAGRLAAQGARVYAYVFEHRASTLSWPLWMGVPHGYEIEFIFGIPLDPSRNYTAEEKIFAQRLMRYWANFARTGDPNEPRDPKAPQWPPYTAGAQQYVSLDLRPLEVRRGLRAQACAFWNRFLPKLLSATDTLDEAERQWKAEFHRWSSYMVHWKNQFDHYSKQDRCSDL
For the next test, the target named is Cholinesterase (Homo sapiens, UniProt P06276). The experiment in a line: Inhibition of butyrylcholinesterase (unknown origin) using butyrylthiocholine chloride as substrate incubated for 10 mins followed by substrate addition measured after 20 mins by UV-Vis spectrophotometric analysis.
Chain of Cholinesterase (P06276 whole entry): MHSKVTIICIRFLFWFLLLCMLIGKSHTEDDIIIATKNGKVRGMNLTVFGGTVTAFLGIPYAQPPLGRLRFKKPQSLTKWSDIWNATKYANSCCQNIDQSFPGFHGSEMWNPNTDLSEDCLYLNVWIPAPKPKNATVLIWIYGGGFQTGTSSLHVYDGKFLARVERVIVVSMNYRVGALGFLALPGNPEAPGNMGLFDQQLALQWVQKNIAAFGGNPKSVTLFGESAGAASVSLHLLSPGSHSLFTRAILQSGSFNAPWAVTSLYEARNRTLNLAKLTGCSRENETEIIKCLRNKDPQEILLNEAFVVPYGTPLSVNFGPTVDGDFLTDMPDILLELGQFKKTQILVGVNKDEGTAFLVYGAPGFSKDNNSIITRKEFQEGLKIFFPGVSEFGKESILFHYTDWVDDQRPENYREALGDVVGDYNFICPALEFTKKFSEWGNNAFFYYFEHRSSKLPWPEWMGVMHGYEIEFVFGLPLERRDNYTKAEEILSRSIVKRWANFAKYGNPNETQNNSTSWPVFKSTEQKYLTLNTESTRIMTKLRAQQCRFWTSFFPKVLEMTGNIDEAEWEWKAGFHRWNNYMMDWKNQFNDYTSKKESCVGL

As to `CC(C)Cc1ccc(/C=C2\Oc3ccccc3C2=O)cc1`, the IC50 amounted to 980 nM against Acetylcholinesterase and 1020 nM on Cholinesterase.

`S=C1/C(=C/c2ccccc2)Oc2ccccc21`: the IC50 against Acetylcholinesterase is 6390 nM.

`Fc1ccc(/C=C2\Oc3ccccc3C2=S)cc1` came in with an IC50 at Cholinesterase of 5270 nM.

On to `COc1ccc(/C=C2\Oc3ccccc3C2=O)cc1` [4'-METHOXY-AURONE], for which the IC50 against Acetylcholinesterase came to 1260 nM.

What is called IC50 is the midpoint of a concentration-inhibition curve.
